Laboratory results from US10624913B2, “Diagnostics and methods for treatment of non-alcoholic hepatic steatosis and hepatic steatohepatitis, and prevention of complications thereof” (VOLANT HOLDINGS GMBH, priority 2011, dated 2020).
Counter-ions that a name gives are not always drawn.

Legend:
[1] = test system: patients with multiple manifestations of MetS; assay: Treatment comparison of RYGB, Brake or atorvastatin (Lipitor), each added to standard of care (Example 3); assay type: in vivo, human; conditions: for LDL percent change: from baseline
From the text: FIG. 20. […] All patients were given 10 gm Brake™ once Daily, orally, 4 hrs prior to their main meal Pertinent demographic and clinical data were retrieved from medical records for all patients, and shown in FIG. 21. Variables included age, gender, body weight, lipid panel (low-density lipoprotein [LDL], high-density lipoprotein [HDL], triglycerides [TG], and total cholesterol [TC]), HbA1c, and liver function tests (aspartate aminotransferase [AST] and alanine aminotransferase [ALT]). Patients were followed monthly for up to one year to assess changes in the above stated variables. […] From the beginning, the patients who began the study with abnormal findings were separated from the patients with initially normal values and those with abnormal findings were further analyzed to define the magnitude of change as well as the percent change from baseline pre-therapy. Descriptive statistics were used in analyzing the baseline characteristics of each cohort. In addition to counts of how many patients had values above threshold, all descriptive characteristics are reported for each group as percentages and mean values, or where appropriate, the binary distribution percentages. […] This testing was applied to case and control cohorts: (a) using data for all treated patients, (b) using data for only those with abnormal range baselines (c) using cases where the initial value was within the normal range for the laboratory. Data were subsequently analyzed for percent change by biomarker from both of these two perspectives. Comparisons between groups were performed by mixed analysis of variances with a post hoc correction for multiple comparisons to analyze differences between treatments. Data are presented as mean±standard deviation (unless otherwise specified). A p<0.05 was considered evidence of significant change. All statistical analyses were conducted using SAS version 9.4 (SAS institute, Cary, N.C.).

Hepatitis C virus = assay: Hepatitis C patient cases: viral load; assay type: in vivo, human; conditions: Patient E1 on combination; words
Procedure: Case 1: A Hepatitis C Patient with Moderate Viral Load Treated with Brake™ Alone, with the Goal to Evaluate the Secondary Antiviral Impact of Improving the Hepatic Steatosis
Patient M1 was a person with a normal BMI.
They were not on Hepatitis C treatment since 2007; no antiviral drugs in the 3 years prior to Brake™ therapy. Treatment Course: Aphoeline Brake™ (formulation II) was added to their treatment at their second visit.
A Hepatitis C Patient with Combination Treatment of Brake™ and pegIFN/Riba, a Test of the Ability of Combinations to Reduce Viral Load Over that of pegIFN/Riba Alone
After two months with only moderate viral load response to this increased dosage, the patient had the addition of 10 gm per day of Aphoeline Brake™ added to their maximal dose pegIFN/Riba regimen.
Case 3: A Hepatitis C Patient with Advanced Cirrhosis, Treated with Brake™ Alone, a Test of the Ability to Control Hepatic Steatosis in the Face of Minimal Action on the Viral Load
Patient L1 is a Overweight (5′3″ 202 lb) but not overtly T2D […] with Hepatitis C genotype 1a since ˜2002. They had previously been treated with pegIFN/Riba but had been considered a failure in 2005. They have been untreated for Hepatitis C since that time. […] Their bilirubin was 1.5 when seen and they were on the liver transplant list. Their chronic medications included spironolactone, rifaximin, and nexium. […]

[2] = test system: metabolic syndrome / cardiovascular risk (FS index, CV index); assay: Cross comparison of FS index and CV index in treated patients (Example 2); assay type: in vivo, human; conditions: before, at 6 and 12 months, added to SoC; words
Procedure: Here we compare the same patients using FS index and CV index, in order to establish concordance in the risk scoring. We also include patients with MIs as examples of patients with CV events. For each of these patients, the FS index was calculated and the CV index was calculated, using an electronic spreadsheet designed for this purpose, and with the goal to evaluate concordance in the risk scoring. We also include patients with MIs as examples of patients with CV events.
To assess changes in metabolic syndrome, patient characteristics were analyzed using the FS Index.(44) Briefly, the FS index is a method for assessing cardiovascular risk associated with the glucose supply side in metabolic syndrome and T2D patients. The FS index is obtained from the individual patient's biological parameters, wherein a FS index value of greater than 60 is indicative that the individual is in need of therapy for metabolic syndrome or at risk for at least one cardiovascular complication associated with metabolic syndrome.

[3] = test system: ileal brake (PYY, motilin); conditions: ileal infusions in different amounts; words; cited from earlier work
[4] = test system: patients with incident AF; assay: Longitudinal cohort study of atrial fibrillation patients with or without warfarin; assay type: in vivo, human; conditions: adjusted for age and CHADS2; 95% CI 0.85, 2.13; not statistically significant
Procedure: We performed a longitudinal, cohort study with pharmacy and medical claims from 1997 to 2008 from a local health maintenance organization. Participants were identified with incident AF irrespective of warfarin status and followed through their duration within the database. Three clinical outcome measures were assessed including stroke, myocardial infarction, and bleeding. A neural net model was developed to identify patients at high risk of clinical event and defined to be an ‘enriched’ patient. The model defines the enrichment based on the top 10 minimum mean square error (MMSE) output parameters that describe the three clinical outcomes. The MMSE ranks the parameters in order from best to worst predictability when modeling the outputs. Predictors and outcome measures were ascertained with cox proportional hazards models.

[5] = decline from pre-treatment baseline, added to SoC, FIG. 21

**Q.** Which results are given for `CC(C)c1c(C(=O)Nc2ccccc2)c(-c2ccccc2)c(-c2ccc(F)cc2)n1CC[C@@H](O)C[C@@H](O)CC(=O)O` (relative stereo) [atorvastatin, [R—(R*,R*)]-2-(4-fluorophenyl)-β,δ-dihydroxy-5-(l-methylethyl)-3-phenyl-4-[(phenylamino)-carbonyl]-1H-pyrrole-1-heptanoic acid; calcium salt (2:1) trihydrate]?
**A.** Total cholesterol decline ([1]; abnormal baseline cases, 6 and 12 months of treatment): 3.2%; Body weight decline ([1]; at 12 months): 2.6%; ALT decline [1, 5]: essentially no decline; AST decline [1, 5]: 3.5%; Triglyceride concentration decline [1, 5]: 18%; HDL values ([1]; high dose (40 mg) atorvastatin alone, words): decreased; LDL percent change ([1]; high dose (40 mg) atorvastatin, FIG. 21): −22.7%; LDL percent change ([1]; low dose atorvastatin, FIG. 21): −10.1%; HDL values ([1]; low dose atorvastatin, words): increased; Changes baseline to post treatment in triglycerides ([1]; words): negligible; Changes in ALT and AST over pre treatment baseline ([1]; words, atorvastatin 10 mg or 40 mg): Only minor changes

**Q.** With `COc1cc(/C=C/C(=O)CC(=O)/C=C/c2ccc(O)c(OC)c2)ccc1O` [curcumin] as the compound, how does the “Hepatitis C virus status / control of viral load” value (Hepatitis C virus) read?
**A.** The value was “loss of control for viral load”.

**Q.** With `CN(C)C(=N)N=C(N)N` [metformin] as the compound, how does the “Changes in FS index over pre-treatment baseline” value [2] read?
**A.** The value was “did not change the FS index”.

**Q.** What does the source list for `CCCCCCCC/C=C\CCCCCCCC(=O)O` [oleic acid]?
**A.** PYY levels [3]: dose-dependent increase; motilin levels [3]: borderline decrease

**Q.** For `CC(=O)CC(c1ccccc1)c1c(O)c2ccccc2oc1=O` (stereo not shown) [warfarin], which “risk of negative clinical outcomes (aHR)” value [4] is on record?
**A.** Its value is 1.35.
